This note sets out measurements from patent publication EP2266622A2, “Prodrugs containing novel bio-cleavable linkers” (Piramal Life Sciences Limited, priority 2004, dated 2006).

Read-outs that look alike come from different tables or passages of the source.

One data set concerns mucosal damage. The settings on record: rats, oral, 3 hours after administration.
Data set [1] is described as follows: In vitro plasma stability. The note with it: rat plasma at 37 °C, 30 minutes incubation, HPLC analysis.
Experimental: HPLC: Waters Allience analytical HPLC equipped with 2996 PDA detector and Empower software were used to analyze the samples.
HPLC Column: Waters X-Terra RP-18 analytical column, 150 X 3.9 mm, 5 .
HPLC Method: Flow: 1 mL/min, detecter set at 210 nm and at Maxplot (210-400 nm range). Solvent A: Acetonitrile; Solvent B: 0.1% TFA in water. Elution method: A linear gradient of 0-100% A.
The compounds were extracted back into acetonitrile with rigorous vortex.
Data set [2] has as its system carrageenan-induced rat paw edema. As to the kind of experiment: Carrageenan-induced rat paw edema model. Type of data set: in vivo. The settings on record: 75 mg/kg equivalent dose of aspirin, p.o. Here is the method:
Male or female Sprague-Dawley rats weighing 150-200 g were used in the study. The rats were fed normal standard laboratory chow and maintained under standard conditions (room temperature of 22 ± 2 °C; 50 ± 10 % relative humidity; artificial light 06:00 to 18:00). All experimental procedures mentioned below are approved by institutional animal research committees and were performed in accordance with standard guidelines for the treatment of animals.
Anti-inflammatory activity of test compounds was measured in carrageenan-induced rat paw edema model (Takeuchi et al., J. Pharmacol. Exp. Ther. 1998, 286 (1), 115-121). […] We have not yet evaluated I-C1-NOPD5Bin this efficacy test.
In general terms: The carrageenan paw model is a standard test of acute inflammation.

The nature of data set [3]: Oral pharmacokinetics (plasma salicylate by HPLC). The settings on record: rats, 35 mg/kg equivalent dose.

Turning to `CC(=O)Oc1ccccc1C(=O)OCCSSCCO[N+](=O)[O-]` [I-C1-NOPD4], the “ulcer development (in words)” value in the data set with mucosal damage (100 mg/kg equivalent doses) was “none of the animals treated with the test compounds showed any signs of development of ulcers”. Also, the “release of parent drug / conversion to salicylate” value in data set [1] is listed as “converting to the expected metabolite (salicylate)”. In addition, the “anti-inflammatory activity (in words)” value in data set [2] is reported as “significant activity during the first two hours after drug administration”.
In the case of `CC(=O)Oc1ccccc1C(=O)[N-]C(=O)OCCSSCCO[N+](=O)[O-].[Na+]` [I-C1-NOPD5B], the “ulcer development (in words)” value in the data set on mucosal damage (200 mg/kg equivalent doses) is “none of the animals treated with the test compounds showed any signs of development of ulcers”. For the same compound, in data set [3], the “salicylate release profile (in words)” value is “released in a sustained and controlled manner starting from 1 hour through 12 hours”.
Turning to `CC(=O)Oc1ccccc1C(=O)NCCSSCCO[N+](=O)[O-]` [I-C1-NOPD6], the “ulcer development (in words)” value in the data set on mucosal damage (100 mg/kg equivalent doses) is on record as “none of the animals treated with the test compounds showed any signs of development of ulcers”. Moreover, the “prodrug or salicylate found in plasma” value in data set [3] (any time point up to 24 hrs) was “neither the prodrug nor the salicylate was found in the plasma”.
